Measured values from patent US5143929A, “2-substituted thiazolidinone, oxazolidinone, and imidazolidinone derivatives of fenamates as antiinflammatory agents” (Warner-Lambert Company, priority 1991, dated 1992).
Like-named read-outs stand apart in the source and are kept apart here.

Tests used:
5-lipoxygenase = target: T1, 5-lipoxygenase (Rattus norvegicus, UniProt P12527); experiment: ARBL whole cell 5-lipoxygenase assay (inhibition of LTB4 formation in RBL-1 cells); type: cell-based; details: for IC50: A23187 stimulated, read-out: ARBL: IC50 (50% inhibition of LTB4 formation)
T1 construct: host or cells: RBL-1 (rat basophilic leukemia)
T1 sequence (P12527 1-673): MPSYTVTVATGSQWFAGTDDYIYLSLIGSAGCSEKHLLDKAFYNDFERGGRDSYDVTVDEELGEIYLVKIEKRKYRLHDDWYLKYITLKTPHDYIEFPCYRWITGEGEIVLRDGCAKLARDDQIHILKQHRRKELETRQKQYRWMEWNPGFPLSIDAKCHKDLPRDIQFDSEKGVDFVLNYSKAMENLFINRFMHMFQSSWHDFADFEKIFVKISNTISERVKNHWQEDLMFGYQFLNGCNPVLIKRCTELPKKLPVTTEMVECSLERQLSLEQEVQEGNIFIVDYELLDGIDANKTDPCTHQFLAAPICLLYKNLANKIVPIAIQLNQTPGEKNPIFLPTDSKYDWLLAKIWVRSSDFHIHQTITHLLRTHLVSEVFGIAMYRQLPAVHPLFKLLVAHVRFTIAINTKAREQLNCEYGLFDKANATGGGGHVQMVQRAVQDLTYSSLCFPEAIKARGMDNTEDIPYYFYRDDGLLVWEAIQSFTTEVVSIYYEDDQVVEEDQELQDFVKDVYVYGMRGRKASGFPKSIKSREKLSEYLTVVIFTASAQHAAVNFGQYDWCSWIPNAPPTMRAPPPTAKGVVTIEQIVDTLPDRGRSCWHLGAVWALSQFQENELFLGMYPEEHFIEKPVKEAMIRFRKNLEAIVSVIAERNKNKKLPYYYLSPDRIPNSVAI
Description: (§1) The rat basophilic leukemia cell line (RBL-1) was obtained from the American Type Culture Collection (Rockville, Md.).
(§2) Radioimmunoassay (RIA) kits of LTB4 and PGF2α were obtained from Amersham (Arlington Heights, Ill.) and Seragen (Boston, Mass.), respectively.
(§3) All tissue culture media were obtained from GIBCO (Grand Island, N.Y.).
(§4) RBL-1 cells are grown in suspension culture in Eagles minimum essential medium supplemental with 12% fetal bovine serum at 37° C. in an incubator supplied with air--5% carbon dioxide. Cells are harvested by centrifugation. They are washed with cold phosphate-buffered saline, pH 7.4 (PBS; NaCl, 7.1 g; Na2 HPO4, 1.15 g; KH2 PO4, 0.2 g; and KCl, 0.2 g/L). Cells are incubated with and without test agent (in DMSO) (1% DMSO is without effect on arachidonic acid metabolism) for 10 minutes at room temperature. Calcium ionophore A23187 (5 μM) is added and cells are incubated for 7 minutes at 37° C. The reaction is stopped by chilling the tubes on ice for 10 minutes. Cells are finally suspended in PBS containing 1.0 mM calcium at a density of 2×10^6 cells/mL. Cells are separated by centrifugation and the supernatant is stored at -20° C. Aliquots (100 μL) are analyzed for LTB4 and PGF2α using radioimmunoassay kits as provided by the supplier.
(§5) Table 1 contains biochemical data for compounds of formula I obtained from this whole cell assay as IC50 s which are calculated as the concentration of a test compound in micromoles (μM) causing 50% inhibition of LTB4 or PGF2α formation.

cyclooxygenase = target: T2, cyclooxygenase (Rattus norvegicus, UniProt Q63921); experiment: ARBC whole cell cyclooxygenase assay (inhibition of PGF2α formation in RBL-1 cells); type: cell-based; details: for IC50: A23187 stimulated, Table 2 (formula II), read-out: ARBC: IC50 (50% inhibition of PGF2α formation)
T2 construct: host or cells: RBL-1 (rat basophilic leukemia)
T2 sequence (Q63921 27-602): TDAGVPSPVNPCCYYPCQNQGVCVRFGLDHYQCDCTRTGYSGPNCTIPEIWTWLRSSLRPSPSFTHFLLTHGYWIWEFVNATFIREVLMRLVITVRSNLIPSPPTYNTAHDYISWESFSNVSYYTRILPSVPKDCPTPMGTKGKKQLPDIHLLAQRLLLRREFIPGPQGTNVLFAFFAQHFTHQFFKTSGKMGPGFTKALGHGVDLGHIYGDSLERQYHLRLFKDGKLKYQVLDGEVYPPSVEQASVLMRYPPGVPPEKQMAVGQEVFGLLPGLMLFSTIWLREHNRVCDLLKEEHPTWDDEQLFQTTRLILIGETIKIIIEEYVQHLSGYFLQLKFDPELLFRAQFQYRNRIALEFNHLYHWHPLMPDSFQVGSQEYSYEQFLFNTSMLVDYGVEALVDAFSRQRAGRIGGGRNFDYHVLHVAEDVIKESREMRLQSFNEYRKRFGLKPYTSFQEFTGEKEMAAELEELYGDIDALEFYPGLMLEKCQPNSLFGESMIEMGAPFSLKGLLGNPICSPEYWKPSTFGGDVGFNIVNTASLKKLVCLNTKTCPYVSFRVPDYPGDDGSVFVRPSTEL
Description: as §1, §2, §3, §4, §5

[1] = read-out: ARBL: % inhibition of LTB4 at 10 μM, 10 μM, A23187 stimulated, Table 2 (formula II)
[2] = read-out: ARBC: % inhibition of PGF2α at 10 μM, 10 μM, A23187 stimulated, Table 2 (formula II)
[3] = read-out: ARBL: % inhibition of LTB4 at 10 μM, 10 μM, A23187 stimulated, Table 1 (formula I)
[4] = read-out: ARBC: % inhibition of PGF2α at 10 μM, 10 μM, A23187 stimulated, Table 1 (formula I)

Structure (SMILES): Cc1ccc(Cl)c(Nc2ccccc2/C=C2\SC(=S)NC2=O)c1Cl [Example 1, (Z)-5-[[2-[(2,6-Dichloro-3-methylphenyl)amino]phenyl]methylene]-2-thioxo-4-thiazolidinone]
- IC50 (5-lipoxygenase; Table 2 (formula II)): 820 nM
- IC50 (cyclooxygenase): 5960 nM

Structure (SMILES): O=C1NC(=S)S/C1=C\c1ccccc1Nc1cccc(C(F)(F)F)c1 [Example 2, (Z)-2-Thioxo-5-[[2-[[3-(trifluoromethyl)phenyl]amino]phenyl]methylene]-4-thiazolidinone]
- inhibition at 10 µM (5-lipoxygenase; [1]): < 40%
- inhibition at 10 µM (cyclooxygenase; [2]): < 40%

Structure (SMILES): Cc1ccc(Cl)c(Nc2ccccc2/C=C2\SC(=S)N(C)C2=O)c1Cl [Example 3, (Z)-5-[[2-[(2,6-Dichloro-3-methylphenyl)amino]phenyl]methylene]-3-methyl-2-thioxo-4-thiazolidinone]
- inhibition at 10 µM (5-lipoxygenase; [3]): 100%
- inhibition at 10 µM (cyclooxygenase; [4]): < 40%

Structure (SMILES): CN1C(=O)/C(=C/c2ccccc2Nc2cccc(C(F)(F)F)c2)SC1=S [Example 4]
- inhibition at 10 µM (5-lipoxygenase; [3]): < 40%
- inhibition at 10 µM (cyclooxygenase; [4]): < 40%

Structure (SMILES): Cc1ccc(Cl)c(Nc2ccccc2/C=C2\SC(=N)NC2=O)c1Cl [Example 5, (Z)-5-[[2-[(2,6-Dichloro-3-methylphenyl)amino]phenyl]methylene]-2-imino-4-thiazolidinone]
- inhibition at 10 µM (5-lipoxygenase; [1]): < 40%
- inhibition at 10 µM (cyclooxygenase; [2]): < 40%

Structure (SMILES): CSC1=NC(=O)/C(=C/c2ccccc2Nc2c(Cl)ccc(C)c2Cl)S1 [Example 6, (Z)-5-[[2-[(2,6-Dichloro-3-methylphenyl)amino]phenyl]methylene]-2-(methylthio)-4(5H)-thiazolone]
- inhibition at 10 µM (5-lipoxygenase; [1]): 100%
- inhibition at 10 µM (cyclooxygenase; [2]): < 40%

Structure (SMILES): Cc1ccc(Cl)c(Nc2ccccc2/C=C2\SC(=O)NC2=O)c1Cl [Example 7, (Z)-5-[[2-[(2,6-Dichloro-3-methylphenyl)amino]phenyl]methylene]-2,4-thiazolidinedinone]
- inhibition at 10 µM (5-lipoxygenase; [1]): 55%
- inhibition at 10 µM (cyclooxygenase; [2]): < 40%

Structure (SMILES): Cc1ccc(Cl)c(Nc2ccccc2/C=C2\SC(NC#N)=NC2=O)c1Cl [Example 8]
- IC50 (5-lipoxygenase; Table 2 (formula II)): 1480 nM
- IC50 (cyclooxygenase): 10200 nM

Structure (SMILES): O=C1NC(=O)/C(=C/c2ccccc2Nc2cccc(C(F)(F)F)c2)S1 [Example 9, (Z)-5-[[2-[[3-(Trifluoromethyl)phenyl]amino]phenyl]methylene]-2,4-thiazolidinedione]
- inhibition at 10 µM (5-lipoxygenase; [1]): < 40%
- inhibition at 10 µM (cyclooxygenase; [2]): < 40%

Structure (SMILES): Cc1ccc(Cl)c(Nc2ccccc2/C=C2\SC(=S)N(CC(=O)O)C2=O)c1Cl [Example 10, (Z)-5-[[2-[[2-Dichloro-3-methylphenyl)-amino]phenyl]methylene]-4-oxo-2-thioxo-3-thiazolidine acetic acid]
- IC50 (5-lipoxygenase; Table 1 (formula I)): 2180 nM
- inhibition at 10 µM (cyclooxygenase; [4]): < 40%

Structure (SMILES): CC(C)(C)c1cc(Nc2ccccc2/C=C2\SC(=S)NC2=O)cc(C(C)(C)C)c1O [Example 12]
- IC50 (5-lipoxygenase; Table 2 (formula II)): 1470 nM
- IC50 (cyclooxygenase): 2250 nM
